pEC50: −log10 of the molar value.
Assays:
[1] = molecular target: T1, CFTR G551D mutant (Homo sapiens, UniProt P13569, G551D); experiment: YFP-halide influx assay for the CFTR-G551D mutation (HEK293 cells); type: cell-based; details: forskolin 10.67 μM
T1 construct: expressed in transfected cells; host or cells: HEK293 cells, reverse transfection with plasmids
How it was run: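 HEK293 cells reverse-transfected with CFTR G551D and halide-sensitive YFP (H148Q/I152L/F47L), expressed 24 h at 37 °C. YFP fluorescence quenching recorded for 7 s after I⁻ injection. Response = 1−F/F0; EC50 derived from 1−F/F0 vs compound concentration.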

[2] = molecular target: T2, CFTR ΔF508 mutant (Homo sapiens, UniProt P13569, DEL508-508); experiment: YFP-halide influx assay for the CFTR-ΔF508 mutation (CFBE41o- cells); type: cell-based; details: forskolin 10.67 μM; for pEC50: from (1−F/F0) vs concentration plot
T2 construct: expressed in transfected cells; host or cells: CFBE41o- cells, adenoviral transduction
How it was run: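 CFBE41o- cells transduced with adenovirus expressing CFTR ΔF508 and halide-sensitive YFP H148Q/I152L/F47L, then held 24 h at 27° C or with a CFTR modulator 24 h at 37° C. Iodide-induced quench recorded 2 min; EC50 from (1−F/F0) at 36 s versus concentration.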

T1 sequence (P13569 whole entry G551D): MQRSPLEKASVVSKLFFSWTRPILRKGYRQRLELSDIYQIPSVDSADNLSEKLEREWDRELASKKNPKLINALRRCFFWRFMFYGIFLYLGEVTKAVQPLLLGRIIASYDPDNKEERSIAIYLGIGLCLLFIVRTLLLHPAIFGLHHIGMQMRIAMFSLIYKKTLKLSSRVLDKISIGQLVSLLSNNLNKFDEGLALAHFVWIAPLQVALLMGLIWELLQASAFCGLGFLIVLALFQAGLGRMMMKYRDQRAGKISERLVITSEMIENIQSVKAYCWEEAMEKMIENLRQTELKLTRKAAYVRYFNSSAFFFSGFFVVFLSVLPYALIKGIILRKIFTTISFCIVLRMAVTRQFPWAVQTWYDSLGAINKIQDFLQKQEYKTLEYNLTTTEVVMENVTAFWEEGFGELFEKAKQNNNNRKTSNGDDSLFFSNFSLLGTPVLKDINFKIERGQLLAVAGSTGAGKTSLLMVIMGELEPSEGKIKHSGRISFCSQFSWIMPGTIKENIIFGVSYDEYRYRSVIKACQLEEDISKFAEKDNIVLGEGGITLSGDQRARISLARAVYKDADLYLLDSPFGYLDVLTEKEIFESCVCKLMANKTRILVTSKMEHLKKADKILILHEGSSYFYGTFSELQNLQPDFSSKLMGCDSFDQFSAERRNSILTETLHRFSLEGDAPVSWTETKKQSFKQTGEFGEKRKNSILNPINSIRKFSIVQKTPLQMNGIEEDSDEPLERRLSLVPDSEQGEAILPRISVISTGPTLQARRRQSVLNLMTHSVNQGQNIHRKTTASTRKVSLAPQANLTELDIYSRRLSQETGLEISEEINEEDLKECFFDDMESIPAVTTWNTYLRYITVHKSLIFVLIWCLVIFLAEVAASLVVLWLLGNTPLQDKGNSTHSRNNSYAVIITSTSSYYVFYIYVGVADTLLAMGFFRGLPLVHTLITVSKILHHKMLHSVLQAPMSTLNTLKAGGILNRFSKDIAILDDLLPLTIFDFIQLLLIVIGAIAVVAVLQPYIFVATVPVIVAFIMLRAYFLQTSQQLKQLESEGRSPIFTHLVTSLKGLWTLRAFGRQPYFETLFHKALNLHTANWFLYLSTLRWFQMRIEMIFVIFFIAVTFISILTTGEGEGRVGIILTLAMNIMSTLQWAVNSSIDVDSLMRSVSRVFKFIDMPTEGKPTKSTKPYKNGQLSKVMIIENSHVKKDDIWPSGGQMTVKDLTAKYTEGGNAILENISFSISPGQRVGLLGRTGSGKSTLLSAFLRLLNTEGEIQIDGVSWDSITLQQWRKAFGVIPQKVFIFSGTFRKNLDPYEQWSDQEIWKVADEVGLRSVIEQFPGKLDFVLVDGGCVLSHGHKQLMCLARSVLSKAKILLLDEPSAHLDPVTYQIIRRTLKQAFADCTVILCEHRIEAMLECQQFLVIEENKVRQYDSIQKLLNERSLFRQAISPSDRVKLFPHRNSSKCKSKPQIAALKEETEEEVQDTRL
T2 sequence (P13569 with tags, fused parts or gaps DEL508-508): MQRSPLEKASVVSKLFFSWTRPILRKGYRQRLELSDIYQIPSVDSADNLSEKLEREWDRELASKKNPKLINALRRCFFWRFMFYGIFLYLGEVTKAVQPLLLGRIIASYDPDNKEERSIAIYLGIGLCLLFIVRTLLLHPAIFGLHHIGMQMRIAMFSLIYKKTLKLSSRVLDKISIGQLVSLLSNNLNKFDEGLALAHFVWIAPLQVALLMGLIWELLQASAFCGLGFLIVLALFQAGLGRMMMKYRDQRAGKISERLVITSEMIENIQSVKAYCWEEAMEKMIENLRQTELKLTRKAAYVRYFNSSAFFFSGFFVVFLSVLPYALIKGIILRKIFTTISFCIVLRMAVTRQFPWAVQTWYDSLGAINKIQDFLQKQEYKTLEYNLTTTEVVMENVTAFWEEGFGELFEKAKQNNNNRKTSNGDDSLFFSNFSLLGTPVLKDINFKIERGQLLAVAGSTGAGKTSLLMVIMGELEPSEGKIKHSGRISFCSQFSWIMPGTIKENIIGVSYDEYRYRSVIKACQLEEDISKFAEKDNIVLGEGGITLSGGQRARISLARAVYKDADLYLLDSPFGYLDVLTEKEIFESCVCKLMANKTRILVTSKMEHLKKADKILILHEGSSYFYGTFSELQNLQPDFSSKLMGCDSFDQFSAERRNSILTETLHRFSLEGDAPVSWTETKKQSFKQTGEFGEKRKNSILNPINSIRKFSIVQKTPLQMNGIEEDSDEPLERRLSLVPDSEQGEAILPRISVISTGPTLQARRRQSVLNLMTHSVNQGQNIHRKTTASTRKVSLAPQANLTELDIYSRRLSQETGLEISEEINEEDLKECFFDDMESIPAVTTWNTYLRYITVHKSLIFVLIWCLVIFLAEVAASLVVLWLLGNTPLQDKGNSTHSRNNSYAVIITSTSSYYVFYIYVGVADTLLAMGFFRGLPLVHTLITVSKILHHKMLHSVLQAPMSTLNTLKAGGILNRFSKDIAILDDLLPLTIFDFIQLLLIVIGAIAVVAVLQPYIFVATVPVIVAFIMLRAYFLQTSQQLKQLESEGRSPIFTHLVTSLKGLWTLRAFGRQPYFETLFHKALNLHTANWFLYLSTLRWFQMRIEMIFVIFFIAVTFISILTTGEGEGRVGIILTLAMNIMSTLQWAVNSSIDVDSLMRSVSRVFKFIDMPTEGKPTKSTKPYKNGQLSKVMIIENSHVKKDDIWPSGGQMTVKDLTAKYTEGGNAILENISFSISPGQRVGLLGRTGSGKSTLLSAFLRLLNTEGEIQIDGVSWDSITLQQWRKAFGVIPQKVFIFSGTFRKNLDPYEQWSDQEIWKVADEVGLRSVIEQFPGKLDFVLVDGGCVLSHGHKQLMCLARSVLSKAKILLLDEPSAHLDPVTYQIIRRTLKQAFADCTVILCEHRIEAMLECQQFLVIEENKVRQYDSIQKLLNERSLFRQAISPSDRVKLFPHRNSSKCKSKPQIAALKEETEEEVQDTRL

| Compound | % Activation [1] [%] | pEC50 [1] | % Activation [2] [%] | pEC50 [2] |
| --- | --- | --- | --- | --- |
| COCC1(C)CN(C(=O)c2ncc(S(=O)(=O)c3ccc(C(F)(F)F)cc3)cc2N)C1 [Compound 232, (3-amino-5-{[4-(trifluoromethyl)phenyl]sulfonyl}pyridin-2-yl)[3-(methoxymethyl)-3-methylazetidin-1-yl]methanone] | 66.0 | 5.83 | 94.5 | 7.16 |
| Nc1cc(S(=O)(=O)c2ccc(C(F)(F)F)cc2)cnc1C(=O)N1CCC[C@@H]1CO [Compound 233, (3-amino-5-{[4-(trifluoromethyl)phenyl]sulfonyl}pyridin-2-yl) [(2R)-2-(hydroxymethyl)pyrrolidin-1-yl]methanone] | 5.4 | < 5.00 | 44.9 | 5.86 |
| CC[C@@H](CO)NC(=O)c1ncc(S(=O)(=O)c2ccc(C(F)(F)F)cc2)cc1N [Compound 234, 3-amino-N-[(2S)-1-hydroxybutan-2-yl]-5-{[4-(trifluoromethyl)phenyl]sulfonyl}pyridine-2-carboxamide] | 46.1 | 5.96 | 102.4 | 7.41 |
| Nc1cc(S(=O)(=O)c2ccc(C(F)(F)F)cc2)cnc1C(=O)N[C@@H]1COCC[C@@H]1O [Compound 235, 3-amino-N-[(3R,4S)-4-hydroxytetrahydro-2H-pyran-3-yl]-5-{[4-(trifluoromethyl)phenyl]sulfonyl}pyridine-2-carboxamide] | 14.4 |  | 58.5 | < 6.18 |
| Nc1cc(S(=O)(=O)c2cccc(OC(F)(F)F)c2)cnc1C(=O)NCC(O)C(F)(F)F (stereo not drawn) [Compound 236, 3-amino-N-(3,3,3-trifluoro-2-hydroxypropyl)-5-{[3-(trifluoromethoxy)phenyl]sulfonyl}pyridine-2-carboxamide] | 77.2 | 6.44 | 115.5 | 8.44 |
| CC(C)Oc1ccc(S(=O)(=O)c2cnc(C(=O)NCC(O)C(F)(F)F)c(N)c2)cc1 (stereo not drawn) [Compound 237, 3-amino-5-{[4-(propan-2-yloxy)phenyl]sulfonyl}-N-(3,3,3-trifluoro-2-hydroxypropyl)pyridine-2-carboxamide] | 69.5 | 6.26 | 106.5 | 8.00 |
| Nc1cc(S(=O)(=O)CC2CCCO2)cnc1C(=O)NCC(O)C(F)(F)F (stereo not drawn) [Compound 238, 3-amino-5-[(tetrahydrofuran-2-ylmethyl)sulfonyl]-N-(3,3,3-trifluoro-2-hydroxypropyl)pyridine-2-carboxamide] | 4.8 | < 5.00 | 53.7 | 6.27 |
| COCC(O)CNC(=O)c1ncc(S(=O)(=O)c2ccc(C(F)(F)F)cc2)cc1N (stereo not drawn) [Compound 239, 3-amino-N-(2-hydroxy-3-methoxypropyl)-5-{[4-(trifluoromethyl)phenyl]sulfonyl}pyridine-2-carboxamide] | 76.5 | 5.98 | 95.8 | 7.53 |
| Nc1cc(S(=O)(=O)c2ccc(C(F)(F)F)cc2)cnc1C(=O)NCCOC(F)(F)F [Compound 240, 3-amino-N-[2-(trifluoromethoxy)ethyl]-5-{[4-(trifluoromethyl)phenyl]sulfonyl}pyridine-2-carboxamide] | 50.6 | 6.02 | 98.1 | 6.86 |
| Nc1cc(S(=O)(=O)c2ccc(OC(F)(F)F)cc2)cnc1C(=O)NC[C@H](O)COCC1CC1 [Compound 242, 3-amino-N-[(2S)-3-(cyclopropylmethoxy)-2-hydroxypropyl]-5-{[4-(trifluoromethoxy)phenyl]sulfonyl}pyridine-2-carboxamide] | 71.5 | 6.08 | 103.0 | 7.60 |
| CC(C)OC[C@@H](O)CNC(=O)c1ncc(S(=O)(=O)c2ccc(C(F)(F)F)cc2)cc1N [Compound 243, 3-amino-N-[(2S)-2-hydroxy-3-(propan-2-yloxy)propyl]-5-{[4-(trifluoromethyl)phenyl]sulfonyl}pyridine-2-carboxamide] | 99.0 | 6.19 | 111.5 | 8.08 |
| Nc1cc(S(=O)(=O)c2ccccc2)cnc1C(=O)NCC(O)C(F)(F)F (stereo not drawn) [Compound 244, 3-amino-5-(phenylsulfonyl)-N-(3,3,3-trifluoro-2-hydroxypropyl)pyridine-2-carboxamide] | 65.9 | 6.25 | 102.5 | 8.07 |
| Cc1ccc(S(=O)(=O)c2cnc(C(=O)NCC(O)C(F)(F)F)c(N)c2)cc1 (stereo not drawn) [Compound 245, 3-amino-5-[(4-methylphenyl)sulfonyl]-N-(3,3,3-trifluoro-2-hydroxypropyl)pyridine-2-carboxamide] | 80.8 | 6.40 | 114.0 | 8.25 |
| CC(C)c1ccc(S(=O)(=O)c2cnc(C(=O)NCC(O)C(F)(F)F)c(N)c2)cc1 (stereo not drawn) [Compound 246, 3-amino-5-{[4-(propan-2-yl)phenyl]sulfonyl}-N-(3,3,3-trifluoro-2-hydroxypropyl)pyridine-2-carboxamide] | 106.0 | 6.41 | 118.0 | 8.41 |
| CC(C)(C)c1ccc(S(=O)(=O)c2cnc(C(=O)NCC(O)C(F)(F)F)c(N)c2)cc1 (stereo not drawn) [Compound 247, 3-amino-5-[(4-tert-butylphenyl)sulfonyl]-N-(3,3,3-trifluoro-2-hydroxypropyl)pyridine-2-carboxamide] | 98.7 | 6.66 | 114.5 | 8.37 |
| Nc1cc(S(=O)(=O)c2ccc(C(F)(F)F)cc2)cnc1C(=O)NC[C@@H](O)COCC(F)(F)F [Compound 248, 3-amino-N-[(2R)-2-hydroxy-3-(2,2,2-trifluoroethoxy)propyl]-5-{[4-(trifluoromethyl)phenyl]sulfonyl}pyridine-2-carboxamide] | 91.1 | 6.41 | 105.0 | 7.92 |
| Nc1cc(S(=O)(=O)c2ccc(C(F)(F)F)cc2)cnc1C(=O)NC[C@H](O)COCC(F)(F)F [Compound 249, 3-amino-N-[(2S)-2-hydroxy-3-(2,2,2-trifluoroethoxy)propyl]-5-{[4-(trifluoromethyl)phenyl]sulfonyl}pyridine-2-carboxamide] | 83.7 | 6.76 | 96.2 | 8.52 |
| Nc1cc(S(=O)(=O)c2ccc(F)cc2)c(Br)nc1C(=O)NC[C@@H](O)C(F)(F)F [Compound 250, 3-amino-6-bromo-5-[(4-fluorophenyl)sulfonyl]-N-[(2R)-3,3,3-trifluoro-2-hydroxypropyl]pyridine-2-carboxamide] | 90.4 | 6.34 | 111.5 | 9.00 |
| Nc1cc(S(=O)(=O)c2ccc(OC(F)(F)F)cc2)cnc1C(=O)NC[C@@H](O)COCC1CC1 [Compound 251, 3-amino-N-[(2R)-3-(cyclopropylmethoxy)-2-hydroxypropyl]-5-{[4-(trifluoromethoxy)phenyl]sulfonyl}pyridine-2-carboxamide] | 93.3 | 6.04 | 110.0 | 7.79 |
| Nc1cc(S(=O)(=O)c2cccc(F)c2)cnc1C(=O)NC[C@@H](O)C(F)(F)F [Compound 254, 3-amino-5-[(3-fluorophenyl)sulfonyl]-N-[(2R)-3,3,3-trifluoro-2-hydroxypropyl]pyridine-2-carboxamide] | 56.0 | 5.84 | 106.0 | 8.30 |
| Nc1cc(S(=O)(=O)c2ccccc2)cnc1C(=O)N1CC(O)(C(F)(F)F)C1 [Compound 255, [3-amino-5-(phenyl sulfonyl)pyridin-2-yl][3-hydroxy-3-(trifluoromethyl)azetidin-1-yl]methanone] | 41.8 | 5.24 | 104.2 | 8.89 |
| Nc1cc(S(=O)(=O)c2cccc(F)c2)cnc1C(=O)N1CC(O)(C(F)(F)F)C1 [Compound 256, {3-amino-5-[(3-fluorophenyl)sulfonyl]pyridin-2-yl}[3-hydroxy-3-(trifluoromethyl)azetidin-1-yl]methanone] | 45.6 | < 5.48 | 107.4 | 9.18 |
| Nc1cc(S(=O)(=O)c2ccc(C(F)(F)F)cc2)cnc1C(=O)N[C@H]1COCC[C@H]1O [Compound 257, 3-amino-N-[(3S,4R)-4-hydroxytetrahydro-2H-pyran-3-yl]-5-{[4-(trifluoromethyl)phenyl]sulfonyl}pyridine-2-carboxamide] | 50.4 | 6.12 | 122.0 | 7.57 |
| Nc1cc(S(=O)(=O)c2ccc(C(F)(F)F)cc2)c(C2CC2)nc1C(=O)NCCO [Compound 258, 3-amino-6-cyclopropyl-N-(2-hydroxyethyl)-5-{[4-(trifluoromethyl)phenyl]sulfonyl}pyridine-2-carboxamide] | 108.0 | 6.29 | 119.0 | 8.00 |
| C[C@H](O)CNC(=O)c1nc(-c2ccc(F)cc2)c(S(=O)(=O)C2CCCC2)cc1N [Compound 261, 3-amino-5-(cyclopentanesulfonyl)-6-(4-fluorophenyl)-N-[(2S)-2-hydroxypropyl]pyridine-2-carboxamide] | 16.6 | < 6.00 | 87.3 | 6.79 |
